Test results taken from patent US5698516A, “Biologically active vasopressin analogues” (Ferring B.V., priority 1993, dated 1997).
Like-named read-outs stand apart in the source and are kept apart here. Numbered stars: 1 amine (or outer) side, 2 acyl side, 3 side chain; on linkers, the order of the positions; unused ones are H or OH. Bridge positions count the residues as written; N and C are the ends. Square brackets hold non-standard residues; d marks the D form. Peptide text beside a SMILES is read from it. Hyp = O=C(O)[C@@H]1C[C@@H](O)CN1; 2Thi = N[C@@H](Cc1cccs1)C(=O)O; d2Thi = N[C@H](Cc1cccs1)C(=O)O; Iva = CC[C@](C)(N)C(=O)O; X1 = O=C(CCC[*:2])[*:1]

Legend:
rat = test: Antidiuretic activity (ADiv), rat model, urine conductivity after intravenous challenge; type: in vivo; conditions: conductivity of urine
Method: a) Antidiuretic activity (ADiv)
The antidiuretic activity of the peptides was determined in the well established rat model which is based on continuous measurement of the conductivity of the urine produced by the rat after an intravenous challenge with peptide (J. Medicinal Chem. (1978), 21, 352-356).

[1] = rat, in vivo
Method: (§1) b) Gastrointestinal absorption of peptides [(FAD)V ]
(§2) Absorption of peptides administered in the intestine through a surgically introduced plastic tube (10 cm distal of pylorus) was determined by comparing the antidiuretic effect (area under curve) after intestinal administration with the antidiuretic effect after intravenous adminstration.

[2] = rat, in vivo; remark: listed apart in the source
Method: (§3) c) Intranasal absorption of peptides (FAD)in
(§4) Absorption of peptides administered in a volume of 30 μl in the nasal cavity through a PE20 cannula attached to a Hamilton syringe (introduced 10 mm without surgery), was determined by comparing the antidiuretic effect (area under curve) after intranasal administration with the antidiuretic effect after intravenous administration.

[3] = in vivo; cited from earlier work
[4] = Intranasal absorption of peptides (FAD)in, intranasal vs intravenous antidiuretic effect; conditions: rat, 30 μl in nasal cavity; antidiuretic effect AUC vs intravenous
Method: as §3, §4

[5] = Gastrointestinal absorption of peptides (FAD)V, intestinal vs intravenous antidiuretic effect; conditions: rat, intestinal administration via tube 10 cm distal of pylorus; antidiuretic effect AUC vs intravenous
Method: as §1, §2

| Compound | ADiv (antidiuretic activity) (rat) | (FAD)V (gastrointestinal absorption) [1] | (FAD)in (intranasal absorption) [2] | decrease of bioavailability by intranasal route [3] | (FAD)in (intranasal absorption) [4] | (FAD)V (gastrointestinal absorption) [5] |
| --- | --- | --- | --- | --- | --- | --- |
| NC(=O)CC[C@@H]1NC(=O)[C@H](Cc2ccccc2)NC(=O)[C@H](Cc2ccc(O)cc2)NC(=O)CCSSC[C@@H](C(=O)N2CCC[C@H]2C(=O)N[C@H](CCCN=C(N)N)C(=O)NCC(N)=O)NC(=O)[C@H](CC(N)=O)NC1=O [DDAVP, 1-desamino-8-D-arginine vasopressin] | 1100 IU/μmol | 0.09% | 8% | about 10 times | – | – |
| CC[C@]1(C)NC(=O)[C@H](Cc2cccs2)NC(=O)[C@@H](Cc2ccccc2)NC(=O)CCCSC[C@@H](C(=O)N2C[C@H](O)C[C@H]2C(=O)N[C@H](CCCNC(=N)N)C(=O)NCC(N)=O)NC(=O)[C@H](CC(N)=O)NC1=O [Ex. 1] ([dF][2Thi][Iva]NC[Hyp][dR]G-NH2; linker N-5 via X1) | – | – | – | – | 42% | 1.3% |
| CC(C)[C@@H]1NC(=O)[C@H](Cc2cccs2)NC(=O)[C@@H](Cc2ccccc2)NC(=O)CCCSC[C@@H](C(=O)N2C[C@H](O)C[C@H]2C(=O)N[C@H](CCCNC(=N)N)C(=O)NCC(N)=O)NC(=O)[C@H](CC(N)=O)NC1=O [Ex. 2] ([dF][2Thi]VNC[Hyp][dR]G-NH2; linker N-5 via X1) | – | – | – | – | 20% | 1.2% |
| CC(C)[C@@H]1NC(=O)[C@H](Cc2ccccc2)NC(=O)[C@@H](Cc2ccc(O)cc2)NC(=O)CCCSC[C@@H](C(=O)N2CCC[C@H]2C(=O)N[C@H](CCCNC(=N)N)C(=O)NCC(N)=O)NC(=O)[C@H](CC(N)=O)NC1=O [Ex. 3, reference compound] ([dY]FVNCP[dR]G-NH2; linker N-5 via X1) | – | – | – | – | 5% | 0.4% |
| CC[C@]1(C)NC(=O)[C@H](Cc2cccs2)NC(=O)[C@@H](Cc2cccs2)NC(=O)CCCSC[C@@H](C(=O)N2C[C@H](O)C[C@H]2C(=O)N[C@H](CCCNC(=N)N)C(=O)NCC(N)=O)NC(=O)[C@H](CC(N)=O)NC1=O [Ex. 4] ([d2Thi][2Thi][Iva]NC[Hyp][dR]G-NH2; linker N-5 via X1) | – | – | – | – | 22% | 2.5% |
| CC[C@]1(C)NC(=O)[C@H](Cc2cccs2)NC(=O)[C@@H](Cc2ccc(O)cc2)NC(=O)CCCSC[C@@H](C(=O)N2C[C@H](O)C[C@H]2C(=O)N[C@H](CCCNC(=N)N)C(=O)NCC(N)=O)NC(=O)[C@H](CC(N)=O)NC1=O [Ex. 5] ([dY][2Thi][Iva]NC[Hyp][dR]G-NH2; linker N-5 via X1) | – | – | – | – | 17% | 1.4% |
| CSCC[C@@H]1NC(=O)[C@@H](Cc2cccs2)NC(=O)CCCSC[C@@H](C(=O)N2C[C@H](O)C[C@H]2C(=O)N[C@H](CCCNC(=N)N)C(=O)NCC(N)=O)NC(=O)[C@H](CC(N)=O)NC(=O)[C@H](C(C)C)NC1=O [Ex. 6] ([d2Thi]MVNC[Hyp][dR]G-NH2; linker N-5 via X1) | – | – | – | – | 22% | 1.6% |
